Test results reported in patent US20180050993A1, “NOVEL FLUORINATED DERIVATIVES AS EGFR INHIBITORS USEFUL FOR TREATING CANCERS” (Trillium Therapeutics Inc., priority 2015, published 2018).
Structures can show the parent of a compound that is named as a salt. Where two headings read alike, the source gives them in different places.

Experiments:
HCC827 = experiment: Comparison with 1st generation inhibitors against a lung cancer cell line (HCC827); format: cell-based; settings: Homo sapiens, read-out: Biochemical IC50
[1] = Human liver microsomal stability; format: in vitro ADME; settings: stability in pooled human (50 donors) liver microsomes 0.5 mg/ml, compound 1 μM, parent compound by LC/MS
Method: (§1) Working stocks were initially diluted to a concentration of 40.0 μM in 0.1 M potassium phosphate buffer before addition to the reaction vials. Pooled mouse (CD-1, male) or human (50 donors) liver microsomes were utilized at a final concentration of 0.5 mg/ml. Duplicate wells were used for each time point (0 and 30 minutes). Reactions were carried out at 37° C. in a shaker, and the final concentration of DMSO was kept constant at 0.01%. The final volume for each reaction was 100 μL, which includes the addition of an NADPH-Regeneration solution (NRS) mix. This NRS mix is comprised of glucose 6-phosphate dehydrogenase (0.4 U/mL), NADP+ (1.3 mM), MgCl2 (3.3 mM), and glucose 6-phosphate (3.3 mM) in assay mixtures. Upon completion of the 30 minute time point, reactions were terminated by the addition of 1.5-volumes (150 μL) of ice-cold, acetonitrile with 0.5% formic acid and internal standard. Samples were then centrifuged at 4,000 rpm for 10 minutes to remove debris and precipitated protein. Approximately 150 μL of supernatant was subsequently transferred to a new 96 well microplate for LC/MS analysis.
(§2) Narrow-window mass extraction LC/MS analysis was performed for all samples using a Waters Xevo quadrupole time-of-flight (QTof) mass spectrometer and an ACQUITY UPLC system, to determine relative peak areas of parent compound.
(§3) Human and mouse liver microsomes contain a wide variety of drug metabolizing enzymes and are commonly used to support in vitro ADME (absorption, distribution, metabolism and excretion) studies. These microsomes are used to examine the potential first-pass metabolism by-products of orally administered drugs. Representative compounds of the application were evaluated for their stability in human and mouse liver microsomes.

[2] = Brain and plasma concentrations after oral gavage in rat, sampling to 4 hours (Table 4); format: in vivo; settings: Table 4 (4 hours); for AUClast / Cmax / Tmax: brain tissue, PO 50 mg/kg; for Cmax / Tmax / Kp at 4 h: male, Sprague-Dawley (SD); for Kp at 4 h: brain/plasma, po, 50 mg/kg
[3] = Mouse liver microsomal stability; format: in vitro ADME; settings: stability in pooled mouse (CD-1, male) liver microsomes 0.5 mg/ml, compound 1 μM, parent compound by LC/MS, in % (unit assumed)
Method: as §1, §2, §3

[4] = Brain concentrations after PO administration in rat, peak at 8 hours (Table 5); format: in vivo; settings: Table 5 (8 hours); for Kp at 8 h: brain/plasma, po, 50 mg/kg
EPHA6 [5] = molecular target: T1, EPHA6 (Homo sapiens, UniProt Q9UF33); experiment: Kinome screen at 300 nM (qPCR competition binding); set-up: purchased DiscoveRx; host or cells: E. coli BL21-derived (T7 phage) or HEK-293; settings: result in words
T1 sequence (Q9UF33 23-1036): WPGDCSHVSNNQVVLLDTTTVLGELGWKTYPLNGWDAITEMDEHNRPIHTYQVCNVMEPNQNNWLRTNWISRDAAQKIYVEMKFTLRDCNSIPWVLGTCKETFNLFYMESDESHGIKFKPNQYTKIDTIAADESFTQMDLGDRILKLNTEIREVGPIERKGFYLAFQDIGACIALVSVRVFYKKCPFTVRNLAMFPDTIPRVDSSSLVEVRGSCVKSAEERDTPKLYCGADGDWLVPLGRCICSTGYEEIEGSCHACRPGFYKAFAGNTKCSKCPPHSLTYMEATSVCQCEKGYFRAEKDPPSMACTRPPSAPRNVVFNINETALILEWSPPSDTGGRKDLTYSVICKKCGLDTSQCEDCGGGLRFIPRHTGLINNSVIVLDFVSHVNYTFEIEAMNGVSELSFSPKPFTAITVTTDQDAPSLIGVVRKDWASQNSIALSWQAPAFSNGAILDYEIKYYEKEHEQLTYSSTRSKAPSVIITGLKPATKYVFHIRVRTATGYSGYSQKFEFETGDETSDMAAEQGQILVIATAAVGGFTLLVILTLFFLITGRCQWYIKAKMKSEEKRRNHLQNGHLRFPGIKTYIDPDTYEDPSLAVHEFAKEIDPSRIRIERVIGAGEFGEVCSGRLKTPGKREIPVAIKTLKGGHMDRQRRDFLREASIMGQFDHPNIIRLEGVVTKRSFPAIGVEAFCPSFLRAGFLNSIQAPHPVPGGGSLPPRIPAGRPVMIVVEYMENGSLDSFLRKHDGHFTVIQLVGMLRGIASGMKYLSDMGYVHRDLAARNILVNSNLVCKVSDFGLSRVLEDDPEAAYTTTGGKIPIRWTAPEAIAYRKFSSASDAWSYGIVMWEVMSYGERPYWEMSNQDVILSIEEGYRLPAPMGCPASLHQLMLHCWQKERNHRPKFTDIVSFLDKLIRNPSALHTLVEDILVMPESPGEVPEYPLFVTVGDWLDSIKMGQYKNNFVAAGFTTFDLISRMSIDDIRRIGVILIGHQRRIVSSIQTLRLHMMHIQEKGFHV

P-gp = molecular target: T2, P-gp (Homo sapiens, UniProt P08183); experiment: Evaluation of P-gp efflux in Caco-2 cell monolayers; format: in vitro ADME;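 further: Caco-2 monolayers dosed apically or basolaterally with test compound at 5 µM in HBSS with HEPES and glucose, 37 °C, donor and receiver sampled after 120 min, LC/MS peak areas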
T2 construct: host or cells: Caco-2 (C2BBe1)

EPHA6 [6] = molecular target: T1, EPHA6; experiment: Binding constants (Kd) for EPHA6, kinase competition binding with qPCR readout
EGFR = molecular target: T3, EGFR (Homo sapiens, UniProt P00533); experiment: Kinase HotSpot profiling (Reaction Biology), 33P-ATP filter-binding; format: biochemical; settings: WT EGFR
T3 construct: purchased Reaction Biology
Method: (§4) Base Reaction buffer; 20 mM Hepes (pH 7.5), 10 mM MgCl2, 1 mM EGTA, 0.02% Brij35, 0.02 mg/ml BSA, 0.1 mM Na3VO4, 2 mM DTT, 1% DMSO
(§5) *Required cofactors are added individually to each kinase reaction
(§6) 1. The indicated substrate was prepared in fresh Base Reaction Buffer.
(§7) 2. Any required cofactors were added to the substrate solution above.
(§8) 3. Indicated kinase was added into the substrate solution and gently mixed.
(§9) 4. Compounds in DMSO were added into the kinase reaction mixture by Acoustic technology (Echo550; nanoliter range) and incubated for 20 minutes at room temperature.
(§10) 5. 33P-ATP (specific activity 10 μCi/μl) was added into the reaction mixture to initiate the reaction.
(§11) 6. The kinase reaction was incubated for 2 hours at room temperature
(§12) 7. Reactions were spotted onto P81 ion exchange paper.
(§13) 8. Kinase activity was detected by filter-binding method.
(§14) Representative compounds of Formula I were evaluated against WT EGFR and mutant EGFR (L858R and L858R, T790M) kinases. IC50 concentrations are illustrated in Table 9.

EGFR (L858R, T790M) = molecular target: T4, EGFR (L858R, T790M) (Homo sapiens, UniProt P00533, L858R/T790M); experiment: as above; format: biochemical; settings: mutant EGFR L858R
T4 construct: purchased Reaction Biology
Method: as §4, §5, §6, §7, §8, §9, §10, §11, §12, §13, §14

EGFR (L858R) = molecular target: T5, EGFR (L858R) (Homo sapiens, UniProt P00533, L858R); experiment: as above; format: biochemical; settings: mutant EGFR L858R
T5 construct: purchased Reaction Biology
Method: as §4, §5, §6, §7, §8, §9, §10, §11, §12, §13, §14

EGFR(L747-T751del, Sins) = experiment: Kinome screen at 300 nM (qPCR competition binding)
[7] = Sprague-Dawley, brain, PO 50 mg/kg

T2 sequence (P08183 whole entry): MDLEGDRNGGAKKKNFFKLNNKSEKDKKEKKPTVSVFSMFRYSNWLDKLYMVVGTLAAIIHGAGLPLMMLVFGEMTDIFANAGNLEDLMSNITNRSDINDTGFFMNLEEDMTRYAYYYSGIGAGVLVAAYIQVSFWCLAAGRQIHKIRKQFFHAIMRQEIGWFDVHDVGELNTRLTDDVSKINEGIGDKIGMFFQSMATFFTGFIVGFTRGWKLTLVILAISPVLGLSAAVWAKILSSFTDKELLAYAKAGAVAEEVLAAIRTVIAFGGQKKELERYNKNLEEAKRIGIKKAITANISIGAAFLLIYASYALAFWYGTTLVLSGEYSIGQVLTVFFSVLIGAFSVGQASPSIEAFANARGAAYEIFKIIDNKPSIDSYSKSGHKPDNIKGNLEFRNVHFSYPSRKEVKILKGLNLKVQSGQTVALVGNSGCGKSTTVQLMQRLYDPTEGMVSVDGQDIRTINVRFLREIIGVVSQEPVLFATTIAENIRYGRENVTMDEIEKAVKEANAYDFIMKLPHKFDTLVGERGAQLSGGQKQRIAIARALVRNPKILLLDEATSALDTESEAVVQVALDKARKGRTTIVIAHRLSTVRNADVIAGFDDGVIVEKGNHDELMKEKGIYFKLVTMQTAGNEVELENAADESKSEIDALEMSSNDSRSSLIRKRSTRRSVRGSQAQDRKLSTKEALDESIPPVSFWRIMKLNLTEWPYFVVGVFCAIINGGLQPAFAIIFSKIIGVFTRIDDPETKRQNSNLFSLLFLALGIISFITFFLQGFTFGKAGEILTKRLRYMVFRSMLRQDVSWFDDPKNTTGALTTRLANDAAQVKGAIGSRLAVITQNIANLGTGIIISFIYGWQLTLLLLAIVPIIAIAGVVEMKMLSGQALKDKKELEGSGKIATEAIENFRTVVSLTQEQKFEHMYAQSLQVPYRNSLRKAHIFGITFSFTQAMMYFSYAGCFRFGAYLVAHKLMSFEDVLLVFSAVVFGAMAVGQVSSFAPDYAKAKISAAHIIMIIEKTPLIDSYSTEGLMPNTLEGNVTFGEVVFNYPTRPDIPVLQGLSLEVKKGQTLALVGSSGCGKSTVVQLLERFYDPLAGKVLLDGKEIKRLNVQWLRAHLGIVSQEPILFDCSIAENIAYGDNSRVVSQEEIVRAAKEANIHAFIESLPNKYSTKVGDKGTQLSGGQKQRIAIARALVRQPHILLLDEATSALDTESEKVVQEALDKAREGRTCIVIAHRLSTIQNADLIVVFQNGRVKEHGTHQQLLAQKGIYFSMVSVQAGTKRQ
T3 sequence (P00533 25-1210): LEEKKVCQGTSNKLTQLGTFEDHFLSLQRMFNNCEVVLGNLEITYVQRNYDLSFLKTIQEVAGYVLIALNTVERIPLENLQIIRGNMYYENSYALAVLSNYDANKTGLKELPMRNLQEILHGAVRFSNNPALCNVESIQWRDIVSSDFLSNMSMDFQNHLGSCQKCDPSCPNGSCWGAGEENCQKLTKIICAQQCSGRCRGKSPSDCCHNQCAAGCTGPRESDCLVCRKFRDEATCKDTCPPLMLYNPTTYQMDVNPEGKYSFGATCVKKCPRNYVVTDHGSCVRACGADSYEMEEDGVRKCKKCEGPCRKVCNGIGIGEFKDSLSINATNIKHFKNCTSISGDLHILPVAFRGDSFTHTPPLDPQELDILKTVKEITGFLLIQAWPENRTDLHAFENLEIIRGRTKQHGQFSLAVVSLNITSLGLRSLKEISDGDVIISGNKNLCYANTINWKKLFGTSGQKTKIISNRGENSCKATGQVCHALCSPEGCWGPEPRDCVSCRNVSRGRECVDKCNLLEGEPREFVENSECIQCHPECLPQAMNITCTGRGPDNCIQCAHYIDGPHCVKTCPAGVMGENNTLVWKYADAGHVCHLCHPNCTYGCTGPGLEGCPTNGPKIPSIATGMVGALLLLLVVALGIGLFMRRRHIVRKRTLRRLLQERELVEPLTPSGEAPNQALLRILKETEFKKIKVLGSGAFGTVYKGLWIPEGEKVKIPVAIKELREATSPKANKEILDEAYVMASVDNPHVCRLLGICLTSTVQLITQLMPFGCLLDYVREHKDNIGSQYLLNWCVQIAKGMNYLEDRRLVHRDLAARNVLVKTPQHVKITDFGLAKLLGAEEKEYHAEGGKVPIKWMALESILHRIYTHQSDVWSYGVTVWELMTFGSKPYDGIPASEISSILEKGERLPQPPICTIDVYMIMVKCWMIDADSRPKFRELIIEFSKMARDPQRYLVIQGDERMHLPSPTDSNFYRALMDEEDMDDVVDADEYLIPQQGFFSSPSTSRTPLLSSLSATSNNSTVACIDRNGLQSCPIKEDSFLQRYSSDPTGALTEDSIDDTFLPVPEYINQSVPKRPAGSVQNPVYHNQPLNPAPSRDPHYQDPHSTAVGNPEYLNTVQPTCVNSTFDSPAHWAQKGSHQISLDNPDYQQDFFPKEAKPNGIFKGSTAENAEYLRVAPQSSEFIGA
T4 sequence (P00533 25-1210 T790M/L858R): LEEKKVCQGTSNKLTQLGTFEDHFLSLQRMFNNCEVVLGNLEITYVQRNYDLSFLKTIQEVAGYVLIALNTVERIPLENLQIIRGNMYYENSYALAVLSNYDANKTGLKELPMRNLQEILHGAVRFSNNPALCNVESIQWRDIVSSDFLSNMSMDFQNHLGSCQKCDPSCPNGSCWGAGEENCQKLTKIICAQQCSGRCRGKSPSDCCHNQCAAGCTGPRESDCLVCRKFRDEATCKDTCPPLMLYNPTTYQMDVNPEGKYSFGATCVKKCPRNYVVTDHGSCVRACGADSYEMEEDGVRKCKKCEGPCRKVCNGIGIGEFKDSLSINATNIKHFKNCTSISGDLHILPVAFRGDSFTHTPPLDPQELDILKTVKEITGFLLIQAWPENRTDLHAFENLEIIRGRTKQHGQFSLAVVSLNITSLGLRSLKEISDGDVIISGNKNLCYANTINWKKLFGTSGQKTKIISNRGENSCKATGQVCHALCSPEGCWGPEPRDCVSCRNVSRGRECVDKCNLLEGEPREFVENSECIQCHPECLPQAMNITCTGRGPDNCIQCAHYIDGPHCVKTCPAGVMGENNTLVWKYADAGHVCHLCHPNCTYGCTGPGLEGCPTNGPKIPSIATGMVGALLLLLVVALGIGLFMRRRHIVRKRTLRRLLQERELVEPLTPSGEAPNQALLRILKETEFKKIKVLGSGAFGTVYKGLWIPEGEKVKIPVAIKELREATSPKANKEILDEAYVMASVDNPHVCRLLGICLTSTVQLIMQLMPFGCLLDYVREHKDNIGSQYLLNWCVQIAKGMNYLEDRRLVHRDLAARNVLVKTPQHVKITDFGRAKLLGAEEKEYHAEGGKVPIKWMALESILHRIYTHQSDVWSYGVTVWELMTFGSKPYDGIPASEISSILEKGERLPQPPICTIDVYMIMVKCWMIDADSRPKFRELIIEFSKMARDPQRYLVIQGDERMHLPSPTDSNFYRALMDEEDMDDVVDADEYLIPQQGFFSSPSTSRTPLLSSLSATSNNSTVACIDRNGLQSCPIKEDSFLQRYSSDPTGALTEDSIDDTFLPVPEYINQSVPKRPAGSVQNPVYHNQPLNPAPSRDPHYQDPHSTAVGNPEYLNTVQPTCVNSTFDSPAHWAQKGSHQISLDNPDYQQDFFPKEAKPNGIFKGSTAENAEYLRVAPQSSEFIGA
T5 sequence (P00533 25-1210 L858R): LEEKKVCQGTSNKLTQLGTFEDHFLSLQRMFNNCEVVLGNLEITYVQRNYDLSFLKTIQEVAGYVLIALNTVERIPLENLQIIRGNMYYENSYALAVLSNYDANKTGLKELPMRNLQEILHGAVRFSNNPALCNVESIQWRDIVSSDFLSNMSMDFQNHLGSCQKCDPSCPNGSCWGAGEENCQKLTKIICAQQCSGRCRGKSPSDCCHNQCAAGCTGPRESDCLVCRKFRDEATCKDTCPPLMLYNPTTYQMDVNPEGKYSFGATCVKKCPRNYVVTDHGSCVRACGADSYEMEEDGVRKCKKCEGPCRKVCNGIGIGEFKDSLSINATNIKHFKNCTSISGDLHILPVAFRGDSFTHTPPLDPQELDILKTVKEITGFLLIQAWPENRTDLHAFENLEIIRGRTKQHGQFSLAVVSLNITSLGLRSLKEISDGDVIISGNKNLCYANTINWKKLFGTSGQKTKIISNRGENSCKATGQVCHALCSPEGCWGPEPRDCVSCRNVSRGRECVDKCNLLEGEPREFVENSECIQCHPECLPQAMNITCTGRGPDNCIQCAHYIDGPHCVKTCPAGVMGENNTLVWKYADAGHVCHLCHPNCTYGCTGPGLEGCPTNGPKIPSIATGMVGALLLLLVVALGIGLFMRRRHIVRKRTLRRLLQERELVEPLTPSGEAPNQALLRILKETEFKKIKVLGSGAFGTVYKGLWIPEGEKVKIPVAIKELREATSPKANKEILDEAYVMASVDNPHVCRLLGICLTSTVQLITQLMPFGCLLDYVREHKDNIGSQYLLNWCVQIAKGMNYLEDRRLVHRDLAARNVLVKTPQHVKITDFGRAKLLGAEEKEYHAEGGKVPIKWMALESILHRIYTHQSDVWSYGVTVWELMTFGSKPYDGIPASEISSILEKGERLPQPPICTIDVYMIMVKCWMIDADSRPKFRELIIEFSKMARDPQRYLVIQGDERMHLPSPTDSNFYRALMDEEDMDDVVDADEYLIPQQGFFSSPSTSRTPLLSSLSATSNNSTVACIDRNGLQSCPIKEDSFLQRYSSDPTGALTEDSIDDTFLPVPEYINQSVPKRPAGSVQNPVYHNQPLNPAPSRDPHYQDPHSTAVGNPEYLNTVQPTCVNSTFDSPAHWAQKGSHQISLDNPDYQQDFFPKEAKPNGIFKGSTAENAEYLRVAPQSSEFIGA

For `Fc1c(Nc2ncnc3cc(OCCOC(F)F)c(OCCOC(F)F)cc23)ccc(Cl)c1Cl` [Compound 2A•HCl, N-(3,4-dichloro-2-fluoro-phenyl)-6,7-bis[2 (difluoromethoxy)ethoxy]quinazolin-4-amine], which IC50 (HCC827) is on record?
Its IC50 is 21 nM.

And the HLM (30 min) ([1]; listed as 2(a)•HCl)?
The HLM (30 min) was 97.4%.

What about the AUClast [2] of the same compound?
Its AUClast is 22593 ng·h/g.

And the Cmax [2]?
The Cmax was 6980 ng/g.

What about the Tmax [2] of the same compound?
Its Tmax is 4 h.

What about the Kp at 4 h ([2]; read-out: AUCLast Ratio (Brain/Plasma)) of the same compound?
Its Kp at 4 h is 1.69.

And the Kp at 4 h ([2]; read-out: Cmax Ratio (Brain/Plasma))?
The Kp at 4 h was 1.81.

What about the “MLM (30 min)” value ([3]; listed as 2(a)•HCl) of the same compound?
Its value is 91.7.

And the Cmax [4, 7]?
The Cmax was 5610 ng/g.

What about the Tmax [4, 7] of the same compound?
The Tmax was 8 h.

And the Kp at 8 h ([4]; Sprague-Dawley, read-out: AUCLast Ratio (Brain/Plasma))?
Its Kp at 8 h is 1.5.

What about the Kp at 8 h ([4]; Sprague-Dawley, read-out: Cmax Ratio (Brain/Plasma)) of the same compound?
The Kp at 8 h was 1.72.

And the AUCInf ([4]; brain, PO 50 mg/kg)?
The AUCInf was 102348 ng·h/g.

What about the AUClast ([4]; brain, PO 50 mg/kg) of the same compound?
Its AUClast is 101853 ng·h/g.

And the “selectivity over erlotinib for the ephrin receptor kinase, EPHA6” value (EPHA6 [5])?
Its value is “did show selectivity over erlotinib”.

And the recovery at 120 min, 5 μM (P-gp; Caco-2, pH 7.4, with none (verapamil 0 μM), Caco-2, Verapamil 0 μM, read-out: Recovery (%) AP-BL)?
The recovery at 120 min, 5 μM was 43.4%.

And the recovery at 120 min, 5 μM (P-gp; Caco-2, pH 7.4, with none (verapamil 0 μM), Caco-2, Verapamil 0 μM, read-out: Recovery (%) BL-AP)?
The recovery at 120 min, 5 μM was 57.1%.

What about the recovery at 120 min, 5 μM (P-gp; Caco-2, pH 7.4, with verapamil 100 μM, Caco-2, Verapamil 100 μM, read-out: Recovery (%) AP-BL) of the same compound?
The recovery at 120 min, 5 μM was 55.5%.

What about the recovery at 120 min, 5 μM (P-gp; Caco-2, pH 7.4, with verapamil 100 μM, Caco-2, Verapamil 100 μM, read-out: Recovery (%) BL-AP) of the same compound?
The recovery at 120 min, 5 μM was 83.2%.

And the Papp A→B at 120 min, 5 μM (P-gp; pH 7.4, Caco-2, Verapamil 0 μM)?
Its Papp A→B at 120 min, 5 μM is 0.58 ×10⁻⁶ cm/s.

And the Papp B→A at 120 min, 5 μM (P-gp; pH 7.4, Caco-2, Verapamil 0 μM)?
Its Papp B→A at 120 min, 5 μM is 0.35 ×10⁻⁶ cm/s.

What about the efflux ratio at 120 min, 5 µM (P-gp; pH 7.4, Caco-2, Verapamil 0 μM) of the same compound?
The efflux ratio at 120 min, 5 µM was 0.59.

And the Kd (EPHA6 [6])?
Its Kd is 9.1 nM.

With `COc1cc2ncnc(Nc3ccc(F)c(Cl)c3F)c2cc1OC(=O)N1CC[C@@H](COC(F)F)C1` [2(Qq), [4-(3-chloro-2,4-difluoro-anilino)-7-methoxy-quinazolin-6-yl] (3R)-3-(difluoromethoxymethyl)pyrrolidine-1-carboxylate] as the compound, how does the IC50 (EGFR) read?
Its IC50 is 0.0138 nM.

And the IC50 (EGFR (L858R, T790M))?
Its IC50 is 6820 nM.

What about the IC50 (EGFR (L858R)) of the same compound?
Its IC50 is 0.0164 nM.

For `C#Cc1cccc(Nc2ncnc3cc(OCCOC)c(OCCOC)cc23)c1` [Erlotinib, N-(3-ethynylphenyl)-6,7-bis(2-methoxyethoxy)quinazolin-4-amine, reference compound], which HLM (30 min) [1] is on record?
Its HLM (30 min) is 75.5%.

What about the “% Control @ 300 nM” value (EGFR(L747-T751del, Sins)) of the same compound?
Its value is 0.12%.

And the AUClast [2]?
The AUClast was 4319 ng·h/g.

What about the Cmax [2] of the same compound?
The Cmax was 1710 ng/g.

And the Tmax [2]?
The Tmax was 4 h.

And the “MLM (30 min)” value [3]?
The value was 56.3.

Which results are given for `COc1cc2ncnc(Nc3ccc(F)c(Cl)c3F)c2cc1OCCCN1CCC(OC(F)F)CC1` [2(q), N-(3-chloro-2,4-difluoro-phenyl)-6-[3-[4-(difluoromethoxy)-1-piperidyl]propoxy]-7-methoxy-quinazolin-4-amine]?
IC50 (EGFR): 0.0434 nM; IC50 (EGFR (L858R, T790M)): 4010 nM; IC50 (EGFR (L858R)): 0.0142 nM
